Results as given in patent US9376387B2 (priority 2013, dated 2016).

How the values were obtained:
EqBuChE = EqBuChE (Equus caballus, UniProt P81908); test: biochemical; details: EqBuChE IC50
[1] = target: T1, hAChE (human erythrocyte membranes as a AChE source) (Homo sapiens, UniProt P22303); test: acetylcholinesterase (AChE) activity, modified Ellman method; format: biochemical
T1 construct: human erythrocyte membranes as a AChE source; from tissue; host or cells: human erythrocyte membranes

[2] = hAChE IC50, modified Ellman method, acetylthiocholine iodide substrate, pH=7.4
[3] = IC50, enzyme not named in the examples, AChE per the Table

EqBuChE, sequence (P81908 whole entry): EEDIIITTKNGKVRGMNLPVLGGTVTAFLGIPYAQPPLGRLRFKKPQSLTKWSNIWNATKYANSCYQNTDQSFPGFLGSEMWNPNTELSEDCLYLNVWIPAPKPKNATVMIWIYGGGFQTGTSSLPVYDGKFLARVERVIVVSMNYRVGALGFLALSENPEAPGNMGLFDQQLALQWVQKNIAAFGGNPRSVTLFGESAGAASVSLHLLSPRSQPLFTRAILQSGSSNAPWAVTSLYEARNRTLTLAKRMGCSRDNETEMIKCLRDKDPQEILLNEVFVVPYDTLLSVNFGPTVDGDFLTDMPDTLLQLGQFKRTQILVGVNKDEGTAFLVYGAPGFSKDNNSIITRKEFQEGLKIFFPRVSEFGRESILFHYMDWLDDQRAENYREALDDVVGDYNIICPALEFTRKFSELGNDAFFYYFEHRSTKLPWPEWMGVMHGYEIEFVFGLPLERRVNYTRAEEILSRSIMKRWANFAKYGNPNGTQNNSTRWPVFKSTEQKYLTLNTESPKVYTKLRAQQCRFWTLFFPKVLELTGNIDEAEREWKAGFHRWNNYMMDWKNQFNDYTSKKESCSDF
T1 sequence (P22303 32-617 isoform P22303-2 limits assumed): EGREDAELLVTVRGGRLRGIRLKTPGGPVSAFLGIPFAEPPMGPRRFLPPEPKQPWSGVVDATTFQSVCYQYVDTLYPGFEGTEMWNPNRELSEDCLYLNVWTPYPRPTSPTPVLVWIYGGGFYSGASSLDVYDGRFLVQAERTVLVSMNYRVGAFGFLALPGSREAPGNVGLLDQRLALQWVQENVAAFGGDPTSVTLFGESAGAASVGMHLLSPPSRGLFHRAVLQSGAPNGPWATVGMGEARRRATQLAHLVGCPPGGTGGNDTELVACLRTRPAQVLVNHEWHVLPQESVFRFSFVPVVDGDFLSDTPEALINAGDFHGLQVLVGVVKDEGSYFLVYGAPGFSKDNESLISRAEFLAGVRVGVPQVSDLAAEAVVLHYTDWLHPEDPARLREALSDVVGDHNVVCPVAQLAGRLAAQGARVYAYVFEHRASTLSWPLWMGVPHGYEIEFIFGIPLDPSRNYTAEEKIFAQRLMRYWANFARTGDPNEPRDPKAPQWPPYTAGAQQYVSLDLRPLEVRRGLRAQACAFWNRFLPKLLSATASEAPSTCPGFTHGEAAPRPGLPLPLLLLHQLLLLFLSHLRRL

SMILES: CC(=O)C1=CN(Cc2ccccc2C)C=CC1CC1Cc2cc3c(cc2C1=O)OCO3 (stereo not shown) [Compound 165, 6-[[3-acetyl-1-(o-tolylmethyl)-4H-pyridin-4-yl]methyl]-5,6-dihydrocyclopenta[f][1,3]benzodioxol-7-one]
- IC50 (EqBuChE): 4610 nM

SMILES: COc1ccc2c(c1)CCC(CC1C=CN(Cc3ccccc3C)C=C1C(C)=O)C2=O (stereo not shown) [Compound 59, 2-[[3-acetyl-1-(o-tolylmethyl)-4H-pyridin-4-yl]methyl]-6-methoxy-tetralin-1-one]
- IC50 (EqBuChE): 8270 nM

SMILES: COc1ccc2c(c1)CCC(CC1C=CN(Cc3ccccc3C)C=C1C(C)=O)C2=O (single isomer, unassigned) [Compound 160-C, 2-[[3-acetyl-1-(o-tolylmethyl)-4H-pyridin-4-yl]methyl]-6-methoxy-tetralin-1-one]
- IC50 (EqBuChE): 4700 nM

SMILES: COc1cc2c(cc1OC)C(=O)C(Cc1cc[n+](Cc3cccc(Cl)c3)cc1C(C)=O)C2 (stereo not shown) [Compound 144, 2-[[3-acetyl-1-[(3-chlorophenyl)methyl]pyridin-1-ium-4-yl]methyl]-5,6-dimethoxy-indan-1-one bromide]
- IC50 (EqBuChE): 3340 nM
- IC50 [1, 2]: 3.2 nM

SMILES: COc1ccc2c(c1)CCC(Cc1cc[n+](Cc3cccc(Cl)c3)cc1C(C)=O)C2=O (stereo not shown) [Compound 122, 2-[[3-acetyl-1-[(3-chlorophenyl)methyl]pyridin-1-ium-4-yl]methyl]-6-methoxy-tetralin-1-one bromide]
- IC50 (EqBuChE): 496 nM
- IC50 [1, 2]: 71 nM

SMILES: COc1cc2c(cc1OC)C(=O)C(CC1C=CN(Cc3ccccc3)C=C1C#N)C2 (stereo not shown) [Compound 27, 1-Benzyl-4-(5,6-dimethoxy-1-oxo-2,3-dihydro-1H-inden-2-yl)methyl-1,4-dihydropyridine-3-carbonitrile]
- IC50 [1, 3]: 175 nM

SMILES: COc1ccc2c(c1)CCC(Cc1cc[n+](Cc3ccccc3)cc1Br)C2=O (stereo not shown) [Compound 117, 2-[(1-benzyl-3-bromo-pyridin-1-ium-4-yl)methyl]-6-methoxy-tetralin-1-one bromide]
- IC50 (EqBuChE): 447 nM
- IC50 [1, 2]: 20 nM

SMILES: COc1ccc(C(=O)N(CCCC2C=CN(Cc3ccccc3)C=C2C(C)=O)c2ccccc2)cc1OC (stereo not shown) [Compound 36, N-[3-(3-acetyl-1-benzyl-4H-pyridin-4-yl)propyl]-3,4-dimethoxy-N-phenyl-benzamide]
- IC50 (EqBuChE): 4600 nM

SMILES: COc1ccc2c(c1)CCC(Cc1cc[n+](Cc3ccc(C)cc3)cc1C(C)=O)C2=O (stereo not shown) [Compound 130, 2-[[3-acetyl-1-(p-tolylmethyl)pyridin-1-ium-4-yl]methyl]-6-methoxy-tetralin-1-one bromide]
- IC50 (EqBuChE): 4140 nM
- IC50 [1, 2]: 556 nM

SMILES: COc1ccc2c(c1)CCC(CC1C=CN(Cc3ccccc3C(F)(F)F)C=C1C(C)=O)C2=O (stereo not shown) [Compound 67, 2-[[3-acetyl-1-[[2-(trifluoromethyl)phenyl]methyl]-4H-pyridin-4-yl]methyl]-6-methoxy-tetralin-1-one]
- IC50 (EqBuChE): 3050 nM

SMILES: CC(=O)C1=CN(Cc2ccccc2C)C=CC1CC1Cc2cc(C)ccc2C1=O (stereo not shown) [Compound 163, 2-[[3-acetyl-1-(o-tolylmethyl)-4H-pyridin-4-yl]methyl]-5-methyl-indan-1-one]
- IC50 (EqBuChE): 4820 nM

SMILES: COc1ccc2c(c1)CCC(Cc1cc[n+](Cc3ccc(F)cc3)cc1C(C)=O)C2=O (stereo not shown) [Compound 129, 2-[[3-acetyl-1-[(4-fluorophenyl)methyl]pyridin-1-ium-4-yl]methyl]-6-methoxy-tetralin-1-one bromide]
- IC50 (EqBuChE): 171 nM
- IC50 [1, 2]: 141 nM

SMILES: COc1cc2c(cc1OC)C(=O)C(Cc1cc[n+](Cc3ccccc3C)cc1Br)C2 (stereo not shown) [Compound 141, 2-[[3-bromo-1-(o-tolylmethyl)pyridin-1-ium-4-yl]methyl]-5,6-dimethoxy-indan-1-one bromide]
- IC50 (EqBuChE): 2290 nM
- IC50 [1, 2]: 0.053 nM

SMILES: CC(=O)c1c[n+](Cc2ccccc2C)ccc1CC1Cc2cc(C)c(C)cc2C1=O (stereo not shown) [Compound 152, 2-[[3-acetyl-1-(o-tolylmethyl)pyridin-1-ium-4-yl]methyl]-5,6-dimethyl-indan-1-one bromide]
- IC50 (EqBuChE): 262 nM
- IC50 [1, 2]: 37.7 nM

SMILES: COc1ccc2c(c1)CCC(Cc1cc[n+](Cc3ccccc3Cl)cc1C(C)=O)C2=O (stereo not shown) [Compound 126, 2-[[3-acetyl-1-[(2-chlorophenyl)methyl]pyridin-1-ium-4-yl]methyl]-6-methoxy-tetralin-1-one bromide]
- IC50 (EqBuChE): 256 nM
- IC50 [1, 2]: 29 nM

SMILES: COc1cc2c(cc1OC)C(=O)C(CC1C=CN(Cc3ccccc3C)C=C1C(C)=O)C2 (stereo not shown) [Compound 169, 2-[[3-acetyl-1-(o-tolylmethyl)-4H-pyridin-4-yl]methyl]-5,6-dimethoxy-indan-1-one]
- IC50 [1, 2]: 428 nM

SMILES: COc1cc2c(cc1OC)C(=O)C(Cc1cc[n+](Cc3ccccc3Cl)cc1Br)C2 (stereo not shown) [Compound 140, 2-[[3-bromo-1-[(2-chlorophenyl)methyl]pyridin-1-ium-4-yl]methyl]-5,6-dimethoxy-indan-1-one bromide]
- IC50 (EqBuChE): 984 nM
- IC50 [1, 2]: 0.255 nM

SMILES: COc1ccc2c(c1)CCC(Cc1cc[n+](Cc3cccc([N+](=O)[O-])c3)cc1C(C)=O)C2=O (stereo not shown) [Compound 123, 2-[[3-acetyl-1-[(3-nitrophenyl)methyl]pyridin-1-ium-4-yl]methyl]-6-methoxy-tetralin-1-one bromide]
- IC50 (EqBuChE): 1320 nM
- IC50 [1, 2]: 78.6 nM

SMILES: COc1ccc2c(c1)CCC(CC1C=CN(Cc3cccc(F)c3)C=C1C(C)=O)C2=O (stereo not shown) [Compound 156, 2-[[3-acetyl-1-[(3-fluorophenyl)methyl]-4H-pyridin-4-yl]methyl]-6-methoxy-tetralin-1-one]
- IC50 (EqBuChE): 4400 nM

SMILES: COc1ccc(C(=O)N(CCC2C=CN(Cc3ccccc3)C=C2C(C)=O)c2ccccc2)cc1OC (stereo not shown) [Compound 32, N-[2-(3-acetyl-1-benzyl-4H-pyridin-4-yl)ethyl]-3,4-dimethoxy-N-phenyl-benzamide]
- IC50 (EqBuChE): 6210 nM

SMILES: COc1ccc2c(c1)CCC(Cc1cc[n+](Cc3ccccc3[N+](=O)[O-])cc1C(C)=O)C2=O (stereo not shown) [Compound 125, 2-[[3-acetyl-1-[(2-nitrophenyl)methyl]pyridin-1-ium-4-yl]methyl]-6-methoxy-tetralin-1-one bromide]
- IC50 (EqBuChE): 592 nM
- IC50 [1, 2]: 57.7 nM

SMILES: COc1ccc2c(c1)CCC(Cc1cc[n+](Cc3cccc(C(F)(F)F)c3)cc1C(C)=O)C2=O (stereo not shown) [Compound 124, 2-[[3-acetyl-1-[[3-(trifluoromethyl)phenyl]methyl]pyridin-1-ium-4-yl]methyl]-6-methoxy-tetralin-1-one bromide]
- IC50 (EqBuChE): 2170 nM
- IC50 [1, 2]: 308 nM

SMILES: COc1ccc2c(c1)CCC(CC1C=CN(Cc3ccccc3C)C=C1C(C)=O)C2=O (single isomer, unassigned) [Compound 160-B, 2-[[3-acetyl-1-(o-tolylmethyl)-4H-pyridin-4-yl]methyl]-6-methoxy-tetralin-1-one]
- IC50 (EqBuChE): 5640 nM

SMILES: COc1cc2c(cc1OC)C(=O)C(Cc1cc[n+](Cc3ccccc3)cc1)C2 (stereo not shown) [Compound 23, 1-Benzyl-4-((5,6-dimethoxy-1-oxo-2,3-dihydro-1H-inden-2-yl)methyl)pyridinium iodide]
- IC50 [1, 3]: 36.8 nM

SMILES: COc1ccc2c(c1)CCC(CC1C=CN(Cc3ccccc3C)C=C1C(C)=O)C2=O (racemic) [Compound 160, 2-[[3-acetyl-1-(o-tolylmethyl)-4H-pyridin-4-yl]methyl]-6-methoxy-tetralin-1-one]
- IC50 (EqBuChE): 8270 nM

SMILES: COc1cc2c(cc1OC)C(=O)/C(=C/c1cc[n+](Cc3ccccc3)cc1C(C)=O)C2 [Compound 149, (2E)-2-[(3-actyl-1-benzyl-pyridin-1-ium-4-yl)methylene]-5,6-dimethoxy-indan-1-one bromide]
- IC50 [1, 2]: 20.1 nM

SMILES: COc1ccc2c(c1)CCC(CC1C=CN(Cc3ccccc3Cl)C=C1C(C)=O)C2=O (stereo not shown) [Compound 157, 2-[[3-acetyl-1-[(2-chlorphenyl)methyl]-4H-pyridin-4-yl]methyl]-6-methoxy-tetralin-1-one]
- IC50 (EqBuChE): 5780 nM

SMILES: COc1ccc2c(c1)CC(CC1C=CN(Cc3ccccc3C)C=C1C(C)=O)C2=O (stereo not shown) [Compound 164, 2-[[3-acetyl-1-(o-tolylmethyl)-4H-pyridin-4-yl]methyl]-5-methoxy-indan-1-one]
- IC50 (EqBuChE): 5440 nM

SMILES: CC(=O)c1c[n+](Cc2ccccc2C)ccc1CC1Cc2cc(Cl)ccc2C1=O (stereo not shown) [Compound 136, 2-[[3-acetyl-1-(o-tolylmethyl)pyridin-1-ium-4-yl]methyl]-5-chloro-indan-1-one bromide]
- IC50 [1, 2]: 262 nM

SMILES: COc1cc2c(cc1OC)C(=O)C(CC1C=CN(Cc3ccccc3)C=C1C(C)=O)C2 (stereo not shown) [Compound 34, 1-Benzyl-4-(5,6-dimethoxy-1-oxo-2,3-dihydro-1H-inden-2-yl)methyl-1,4-dihydropyridine-3-acetyl]
- IC50 [1, 3]: 528 nM

SMILES: COc1cc2c(cc1OC)C(=O)C(Cc1cc[n+](Cc3ccccc3)cc1C#N)C2 (stereo not shown) [Compound 26, 1-Benzyl-3-cyano-4-(5,6-dimethoxy-1-oxo-2,3-dihydro-1H-inden-2-yl)methylpyridinium iodide]
- IC50 [1, 3]: 11.2 nM
- IC50 [1, 2]: 11.3 nM

SMILES: COc1ccc2c(c1)CCC(CC1C=CN(Cc3cccc(C)c3)C=C1C(C)=O)C2=O (stereo not shown) [Compound 61, 2-[[3-acetyl-1-(m-tolylmethyl)-4H-pyridin-4-yl]methyl]-6-methoxy-tetralin-1-one]
- IC50 (EqBuChE): 4020 nM

SMILES: COc1ccc2c(c1)CCC(CC1C=CN(Cc3ccccc3F)C=C1C(C)=O)C2=O (stereo not shown) [Compound 55, 2-[[3-acetyl-1-[(2-fluorophenyl)methyl]-4H-pyridin-4-yl]methyl]-6-methoxy-tetralin-1-one]
- IC50 (EqBuChE): 6010 nM

SMILES: COc1ccc2c(c1)CCC(CC1C=CN(Cc3ccc(F)cc3)C=C1C(C)=O)C2=O (stereo not shown) [Compound 155, 2-[[3-acetyl-1-[(4-fluorophenyl)methyl]-4H-pyridin-4-yl]methyl]-6-methoxy-tetralin-1-one]
- IC50 (EqBuChE): 2270 nM

SMILES: COc1cc2c(cc1OC)C(=O)C(Cc1cc[n+](Cc3ccccc3)cc1C(C)=O)C2 (stereo not shown) [Compound 33, 1-Benzyl-3-actyl-4-(5,6-dimethoxy-1-oxo-2,3-dihydro-1H-inden-2-yl)methyl pyridinium bromide]
- IC50 [1, 3]: 18 nM

SMILES: COc1cc2c(cc1OC)C(=O)C(Cc1cc[n+](Cc3ccccc3)cc1C(C)=O)CC2 (stereo not shown) [Compound 132, 2-[(3-actyl-1-benzyl-pyridin-1-ium-4-yl)methyl]-6,7-dimethoxy-tetralin-1-one bromide]
- IC50 [1, 2]: 24.2 nM
